The values below come from patent publication US12612405B2, “Crystalline form of 1-(8-Bromopyrido[2,3-E][1,2,4]triazolo[4,3-a]pyrazin-4-Yl)-Nmethylazetidin-3-amine hydrogen sulfate monohydrate” (JW PHARMACEUTICAL CORPORATION, priority 2021, dated 2026).

Data set [1] in a line: Dynamic Vapor Sorption (DVS). It is filed as physicochemical. As to conditions: for hygroscopicity classification: according to Ph. Eur. Here is the method:
Instrument: DVS Advantage
Methods: About 5 mg of the substance was added into Al pan and exposed to stepwise RH changes during two consecutive cycles according to; 20-30-40-50-60-70-80-70-60-50-40-30-20-10-0-10-20-30-40-50-60-70-80-90-80-70-60-50-40-30-20-10-0/RH using open loop mode. The experiments were performed using a gas flow rate of 200 ml/min and at 25° C. The dm/dt criteria applied was 0.001 weight-%/min during a 5 minutes window, with a maximum allowed time of 150 minutes for all steps, except for the steps at 0% RH which had no criteria but were set to 6 h.

Data set [2] in a line: Interconversions between the crystalline forms (stability at rt, in suspension, during drying). It is filed as physicochemical. As to conditions: for solid phase stability / transition at room temperature: rt, ambient conditions; for stability during drying: drying process; for stability under conditions / suspensions with high water content: high amounts of water. From the text: The table below summarizes interconversions between the different forms and other issues which may be relevant to their use in pharmaceutical compositions: […]

A short description of data set [3]: Solubility in common crystallization solvents. As to conditions: common crystallization solvents including alcohols.
Data set [4] deals with inflammatory cells such as mast cells and eosinophils. To be noted: cited from earlier work.
Data set [5] has as its target histamine 4 receptor (Homo sapiens, UniProt Q9H3N8). As to conditions: cited from earlier work.
The nature of data set [6]: Solubility according to Ph. Eur. and USP. It is filed as physicochemical. From the text:
The solubility of form B according to Ph.

The nature of data set [7]: Thermal stability by TGA / DSC. It is filed as physicochemical. How it is done:
TGA experiments were conducted using a TGA550 instrument from TA Instruments. About 1-10 mg of sample was loaded into a ceramic pan for the measurements. The sample temperature was ramped from 25 to 500° C. at 10° C./min. Nitrogen was used as the purge gas at a flow rate of 50 mL/min.
DSC analyses were carried out on a TA Instruments Q20 Differential Scanning Calorimeter. Accurately weighed samples were placed in crimped aluminum pans. Each sample was heated under nitrogen at a rate of 10° C./minute to a maximum of 300° C. Indium metal was used as the calibration standard.

Entries after “also recorded” stand apart in the source; their conditions may differ.

histamine 4 receptor, sequence (Q9H3N8 whole entry): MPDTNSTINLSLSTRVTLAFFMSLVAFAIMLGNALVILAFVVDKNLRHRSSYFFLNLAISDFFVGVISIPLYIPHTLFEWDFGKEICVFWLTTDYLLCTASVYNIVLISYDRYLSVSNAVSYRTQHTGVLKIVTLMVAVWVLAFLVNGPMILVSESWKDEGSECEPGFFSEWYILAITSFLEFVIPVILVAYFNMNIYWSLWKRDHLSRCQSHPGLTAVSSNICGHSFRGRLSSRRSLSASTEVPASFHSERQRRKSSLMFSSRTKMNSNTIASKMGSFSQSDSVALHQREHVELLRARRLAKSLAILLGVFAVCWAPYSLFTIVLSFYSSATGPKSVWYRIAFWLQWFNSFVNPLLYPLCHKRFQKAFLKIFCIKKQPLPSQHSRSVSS

For the compound `CNC1CN(c2nc3ncc(Br)cc3n3cnnc23)C1.O=S(=O)(O)O` [Form C, 1-(8-bromopyrido[2,3-e][1,2,4]triazolo[4,3-a]pyrazin-4-yl)-N-methylazetidin-3-amine hydrogen sulfate], in data set [1] (DVS, humidity increased to 90%), the “phase transition when humidity increased to 90%” value is “observed and partial phase transition to the non-stoichiometric”. In data set [1] (DVS), the hygroscopicity classification result is reported as “is just in the range for being slightly hygroscopic. DVS”. Besides, in data set [1] (increased relative humidity), the “water uptake at increased relative humidity” value was “The anhydrate significantly takes up water at increased”. For the same compound, the “stability in liquid environment containing more than 20% water” value in data set [2] (liquid environment, more than 20% water) is 20% water form C will not be stable and therefore can be.

For `CNC1CN(c2nc3ncc(Br)cc3n3cnnc23)C1.O=S(=O)(O)O` [Form A, 1-(8-bromopyrido[2,3-e][1,2,4]triazolo[4,3-a]pyrazin-4-yl)-N-methylazetidin-3-amine hydrogen sulfate], in data set [2] (hydrogen sulfate), the “solid phase stability / transition at room temperature” value (shortened to “solid phase stability / transition”) is “that undergoes solid phase transition to form B at rt over time”.

Take `CNC1CN(c2nc3ncc(Br)cc3n3cnnc23)C1.O=S(=O)(O)O` [hydrogen sulfate salt, 1-(8-bromopyrido[2,3-e][1,2,4]triazolo[4,3-a]pyrazin-4-yl)-N-methylazetidin-3-amine hydrogen sulfate]: in data set [3], the “solubilities in common solvents used for crystallizations” value was “very low solubilities”.

Regarding `CNC1CN(c2nc3ncc(Br)cc3n3cnnc23)C1` [1-(8-bromopyrido[2,3-e][1,2,4]triazolo[4,3-a]pyrazin-4-yl)-N-methylazetidin-3-amine], the “solubilities in common solvents used for crystallizations” value in data set [3] is listed as “very low solubilities”. Also, the “effect against histamine induced infiltration of inflammatory cells” value in data set [4] was “suppressive effects”. The “histamine 4 receptor inhibitory effect” value in data set [5] was “strong histamine 4 receptor inhibitory effect”.

Take `CNC1CN(c2nc3ncc(Br)cc3n3cnnc23)C1.O=S(=O)(O)O` [Form K, 1-(8-bromopyrido[2,3-e][1,2,4]triazolo[4,3-a]pyrazin-4-yl)-N-methylazetidin-3-amine hydrogen sulfate]: in data set [2] (hydrogen sulfate), the stability during drying entry is “Form K converts to form C in drying processes” and the “solid phase stability / transition” value is “Form K converts to form C at room temperature”.

Consider `CNC1CN(c2nc3ncc(Br)cc3n3cnnc23)C1.O=S(=O)(O)O` [Form F, 1-(8-bromopyrido[2,3-e][1,2,4]triazolo[4,3-a]pyrazin-4-yl)-N-methylazetidin-3-amine hydrogen sulfate], for which, in data set [2] (hydrogen sulfate), the stability during drying entry is recorded as “Converts to another form during drying process. The water can; also recorded: very easily be dried off” and the “stability under conditions / suspensions with high water content” value is given as “with high water content form F converts to form I”.

For the compound `CNC1CN(c2nc3ncc(Br)cc3n3cnnc23)C1.O.O=S(=O)(O)O` [Form B, 1-(8-bromopyrido[2,3-e][1,2,4]triazolo[4,3-a]pyrazin-4-yl)-N-methylazetidin-3-amine hydrogen sulfate monohydrate], the “water absorbed (DVS)” value in data set [1] (25° C., between 10 and 80% RH) is “By (DVS) it was demonstrated that form B absorbs 0.2%”. Also, the hygroscopicity classification result in data set [1] (DVS) is “considered non-hygroscopic according to Ph. Eur. 5. (the increase in mass of a drug substance between about 0% to 80% relative humidity is less than 0.2% by weight)”. Also, the solubility result is reported as “insoluble” in data set [6] (1-4-dioxane); “insoluble” in data set [6] (1-propanol); “insoluble” in data set [6] (2-propanol); “insoluble” in data set [6] (acetone); “insoluble” in data set [6] (chloroform); “Soluble” in data set [6] (dimethyl sulfoxide). For the same compound, the solubility result is on record as “slightly soluble” in data set [6] (dimethylformamide); “insoluble” in data set [6] (ethanol); “insoluble” in data set [6] (ethyl acetate); “insoluble” in data set [6] (isopropyl acetate); “very slightly soluble” in data set [6] (methanol); “insoluble” in data set [6] (methyl tert-butyl ether). The solubility result in data set [6] (n-butyl acetate) is listed as “insoluble”; in data set [6] (tert-amyl alcohol), “insoluble”; in data set [6] (tetrahydrofuran) it was “insoluble”; in data set [6] (water), “sparingly soluble”; in data set [6] (xylene), “insoluble”.

For `CNC1CN(c2nc3ncc(Br)cc3n3cnnc23)C1.O=S(=O)(O)O` [Form D, 1-(8-bromopyrido[2,3-e][1,2,4]triazolo[4,3-a]pyrazin-4-yl)-N-methylazetidin-3-amine hydrogen sulfate], the “solid phase stability / transition” value in data set [2] (hydrogen sulfate) is listed as “solid phase transformation to form C”. For the same compound, the “stability in suspension formulations” value in data set [2] (suspension formulations, hydrogen sulfate) was “converts to forms F, I, or N depending on the conditions”.

With `CNC1CN(c2nc3ncc(Br)cc3n3cnnc23)C1.O=S(=O)(O)O` [Form I, 1-(8-bromopyrido[2,3-e][1,2,4]triazolo[4,3-a]pyrazin-4-yl)-N-methylazetidin-3-amine hydrogen sulfate], the stability during drying entry in data set [2] (hydrogen sulfate) is reported as “not stable during drying at room temperature where it; also recorded: converts to form K, which then converts to form C at room; also recorded: product as it converts to form C in drying processes”. The “stability under conditions / suspensions with high water content” value in data set [2] was “the crystal structure. The dihydrate form I is the most stable”.

Consider `CNC1CN(c2nc3ncc(Br)cc3n3cnnc23)C1.O=S(=O)(O)O` [Form M, 1-(8-bromopyrido[2,3-e][1,2,4]triazolo[4,3-a]pyrazin-4-yl)-N-methylazetidin-3-amine hydrogen sulfate], for which, in data set [7], the “broad endothermic event due to water loss and breakdown of the crystal lattice” value came to 44 °C. For the same compound, the “temperature of weight loss (TGA curve)” value in data set [7] (TGA) worked out at 50 °C. Further, the thermal stability entry in data set [7] (hydrogen sulfate) is “Form M is a monohydrate but loses water and melts at very; also recorded: this low thermal stability form M is not suitable for”.
